Data as given in a melting point compilation (Tetko et al.; mined from patent text by program, amines drawn as free bases though some values may be those of a salt).

| melting point | Compound |
| --- | --- |
| 161 to 163 °C | O=C1CCC(N2C(=O)c3cccc(CNC(=O)c4ccc(Cl)c(Cl)c4)c3C2=O)C(=O)N1 (stereo unspecified) |
| 126 to 127 °C | COc1ccc(C(=O)N2CCc3cc(OCc4ccccc4)ccc3C2)cc1OC |
| 53.8 to 55.9 °C | COC(=O)c1cc(C)cc(C(C)(C)C#N)c1 |
| 155 to 157 °C | CCc1ccc2c(Cc3nc4c(F)c(F)cc(F)c4s3)cn(CC(=O)O)c2n1 |
| 225 to 227 °C | CCCn1cc2c(n1)c(N)nc1ccccc12 |
| 94 to 95 °C | CC(=O)N1CCc2ccc(SCc3ccccc3)c([N+](=O)[O-])c2C1 |
| 184 to 186 °C | Cc1cscc1NC(=S)Nc1cccc(C)c1N |
| 157 to 158 °C | Cc1cc(C)cc(Oc2c(C(C)C)c(=O)[nH]c(=O)n2CC2CCCC2)c1 |
| 212 to 214 °C | CCOCc1nc2c(N)nc3c(c2n1CCCNS(C)(=O)=O)CCCC3 |
| 200 to 202 °C | O=C(Nc1cccc2c(=O)cc(-c3nnn[nH]3)oc12)c1ccc2c(c1)CC(COCc1ccccc1)O2 (stereo unspecified) |
| 82.5 to 84 °C | Cc1cc(Br)c(Cl)cc1Cl |
| 190 to 192 °C | CCOC(=O)c1cn(-c2ccc(F)cc2F)c2nc(OC)c(F)cc2c1=O |
| 181 to 183 °C | Nc1ccc(CON=Cc2csc(N)n2)cc1 |
| 234 to 237 °C | COC(=O)c1ccc(C(=O)N2CCN(C(=O)c3ccc(C(=O)OC)cc3)CC2)cc1 |
| 159 to 161 °C | CNc1ccc(N2C(=O)c3ccccc3C2=O)c(C)c1 |
| > 250 °C | N#Cc1ccc(C2=Nc3ccc(-c4ccccc4F)cc3NC(=O)C2)s1 |
| 172 to 173 °C | COc1ccccc1NS(=O)(=O)c1ccc([N+](=O)[O-])cc1[N+](=O)[O-] |
| 217 to 218 °C | Cc1c(NC(=O)c2ccc(-c3cc4ccccc4o3)cc2)ccc2cc(CN3CCCC3)cnc12 |
| 225 to 228 °C | Cc1nc(N2CCN(Cc3ccc(C(F)(F)F)nc3)C2=O)sc1C(N)=O |
| 131 to 134 °C | O=P(O)(O)c1cccc(OCc2ccc3ccccc3c2)c1 |
| 188 °C | CC(C)NC(=O)COC1c2ccccc2C(=O)N1c1ccc2ccc(Cl)nc2n1 (stereo unspecified) |
| 202 to 203 °C | CCCCc1c2c(nn1C)c(N)nc1ccccc12 |
| 118 °C | CC(C)c1c(Oc2ccccc2)n(COCc2ccccc2)c(=O)[nH]c1=O |

| melting point | Compound |
| --- | --- |
| 289 to 290 °C | COc1ccc(-c2ccc3n[nH]c(=O)n3n2)cc1F |
| 102 °C | COC=C(C(=O)OC)c1ccccc1Oc1ncnc(F)c1Cl |
| 185 to 186 °C | N#CSc1nc(Cl)ncc1I |
| 130 to 133 °C | O=C(O)C1CC(=C2CCCN(c3ccccc3)C2=O)c2ccc(Cl)cc2N1 (stereo unspecified) |
| 157 to 158 °C | Nc1nc2c(s1)CCN(CCC=Cc1ccccc1)CC2 |
| 82 to 86 °C | O=[N+]([O-])c1ccccc1SN(CCO)CCO |
| 208 to 210 °C | CCC(=O)c1ncc(Nc2cc(C)[nH]n2)nc1Nc1ccc(F)cc1 |
| 302 to 304 °C | CN(C(=O)c1cccc(C(=O)O)c1)c1ccc2c(=O)n3c(nc2c1)C(=Cc1ccccc1)CC3 |
| 203 to 204 °C | COc1ccc2nc(NC(=O)COC(=O)c3ccccc3)sc2c1 |
| 193 to 195 °C | O=c1[nH]ncc2[nH]c(-c3ccc(OC(F)F)c(OC4CC4)c3)c(Cc3ccc(F)cc3)c12 |
| 137 to 138 °C | CCN(C(=O)C(C)O)c1cn(-c2cccnc2)nc1Cl (stereo unspecified) |
| 47 to 49 °C | C=C1CCc2sccc2C1=O |
| 122 to 129 °C | COC(=O)CCc1cc2cc(Cl)ccc2n1S(=O)(=O)c1ccc2c(c1)OCO2 |
| 99 to 101 °C | CCOc1nn(-c2ccccn2)cc1CCCOc1cccc(OC(C)(C)C(=O)O)c1 |
| 57 to 58 °C | CCOC(=O)CON(CC)C(=S)Nc1ccccc1C(C)C |
| 116 to 117 °C | CC(C)(CS(=O)(=O)c1ccc(Oc2ccc(Cl)cn2)cc1)C(=O)NO |
| 81 to 83 °C | Cc1nc(-c2ccc(Cl)cc2Cl)c(Br)n1C(F)F |
| 188 to 190 °C | COCCOCCOc1ccc(NC(=O)NCc2ccc3c(c2)CN(C2CCC(=O)NC2=O)C3=O)cc1Cl (stereo unspecified) |
| > 200 °C | CSc1cc2c(cc1C(F)(F)F)N(C(=O)Nc1cccc(C(=O)Nc3ccncc3)c1)CC2 |
| 111 to 113 °C | CCC(Oc1ccc(S(=O)(=O)c2ccc(C)nc2Nc2c(C)cc(C)cc2C)cc1)C(=O)OC (stereo unspecified) |
| 186 to 189 °C | O=C(c1ccc(O)c(Cl)c1)N1CC=CCC1 |
| 105 to 108 °C | Cc1cc(SCc2cccc3nn(-c4ccc(C(F)(F)F)cc4)cc23)ccc1OCC(=O)O |
| 236 °C | Cc1nc(N2CCNCC2)c2nc(-c3ccccc3)cc-2[nH]1 |

| melting point | Compound |
| --- | --- |
| 128 to 130 °C | CCOC(=O)c1ncn2c1c(Cl)nc1ccccc12 |
| 238 °C | O=C(O)c1ncn2c(C(F)F)cc(-c3ccc(C(F)(F)F)cc3)nc12 |
| 110 °C | COc1cccc(NC(=O)O[C@@H]2CN=C(c3ccccc3)O[C@H]2c2ccccc2)c1 (racemic) |
| 115 to 118 °C | Cn1c(C(F)(F)F)ccc(-c2cc([N+](=O)[O-])c(F)cc2F)c1=O |
| 96 to 97 °C | C1=C(c2nc(COc3ccc(CCCCn4cncn4)cc3)co2)CCc2ccccc21 |
| 166 to 168 °C | O=C1c2ccccc2C(=O)N1OCc1cc[nH]n1 |
| 118 to 120 °C | O=[N+]([O-])c1oc2ccc(NCc3ccccc3)cc2c1-c1ccccc1 |
| 170 to 175 °C | CC(NC(=O)C1C(CO)N(Cc2ccccc2)C(=O)N1Cc1ccccc1)c1ccc2ccccc2c1 (stereo unspecified) |
| 65 to 66 °C | CCC(CC(=O)NC(=O)OC(C)(C)C)Nc1ccc(OC)cc1 (stereo unspecified) |
| 143 to 146 °C | O=[N+]([O-])c1cc(Br)ccc1-c1ccc(Br)cc1[N+](=O)[O-] |
| 126 to 127 °C | CC(C)NCC(O)COc1ccc2c(c1)C1CCC2c2ccccc21 (stereo unspecified) |
| 125 to 126 °C | Cc1cc(C)n2nc(S(=O)(=O)Cl)nc2c1 |
| 77 to 83 °C | CCCc1c(OCC(C)CC(=O)NC(C)CCCc2cccnc2)ccc(C(C)=O)c1O (stereo unspecified) |
| 128 to 129 °C | CC(C)n1c(CCC2C[C@@H](O)CC(=O)O2)c(-c2ccc(F)cc2)c(-c2ccccc2)c1C(=O)Nc1ccccc1 (stereo partly specified) |
| 192 to 194 °C | Cc1nc2c3c(ccn2c1C)C(O)CC(c1ccsc1)N3 (stereo unspecified) |
| 70 °C | Cc1ccc(C)c2c1CCC2=O |
| 247 to 249 °C | Cn1ncc(C(=O)N2CC(F)C2)c1C(=O)Nc1ccn2nc(-c3cccnc3)nc2c1 |
| 53 to 55 °C | CCCc1c(OCCCCCc2c(Cl)ccc(OC)c2OC)ccc(C(=O)OC)c1O |
| 76 to 86 °C | CS(=O)(=O)N[C@@H]1CCCC[C@H]1Nc1nc(Nc2ccc3c(c2)CN(CCO)CCS3)ncc1Cl |
| > 250 °C | CCOC(=O)Cn1c(=O)c(=O)[nH]c2ccc3ccc([N+](=O)[O-])cc3c21 |
| 54 °C | CCc1nc2c(Br)cccc2cc1C |

| Compound | melting point |
| --- | --- |
| COc1cccc2c1cc(C=O)n2Cc1ccccc1 | 130 to 131 °C |
| CNC(=N[N+](=O)[O-])N(Cc1cnc(Cl)s1)C(=O)N1CCOCC1 | 130 to 131 °C |
| CN1CC(C(=O)NCc2cccnc2)CC2c3cccc4c3c(cn4C)CC21 (stereo unspecified) | 185 to 187 °C |
| CN(C)CC#CCNC(=O)C(O)(c1ccccc1)C1CCCCC1 (single isomer, unassigned; (-)) | 120 to 121 °C |
